Tests used:
[1] = system: HSV-2; assay: In vitro antiviral assay for HSV-2; assay type: cell-based, Herpes Simplex Virus 2; conditions: for EC50: Human alphaherpesvirus 2, read-out: Antiviral Activities (EC50, μM) HSV-2
Method: (§1) The antiviral assays for HBV, (Doong et al., 1991, Proc. Natl. Acad. Sci. U.S.A. 88:8495-8499) HSV-1, (Bastow et al., 1983, Antimicrob. Agents Chemother. 23: 914-917) HSV-2, (Bastow et al., 1983, Antimicrob. Agents Chemother. 23:914-917) EBV, (Yao et al., 1993, Antimicrob. Agents Chemother. 37:1420-1425), CMV (Andreoni et al., 2002, J. Med. Virol. 67:33-40) and HIV (Mellors et al., 1992, Mol. Pharmacol. 41: 446-451) were performed according to the previously reported procedures. Anti-HCV activities were tested in Huh-Luc/neo cell line. Cells were seeded into 48-well plates and grown until confluent. Different concentrations of drugs were added into media (DMEM, 10% dFBS) and incubated for 3 days. At the end of 3-day treatment, medium were removed and 50 μl of Passive lysis buffer (Promega) were added. Cell lysate was shaken at room temperature for 15 min. 30 μl/well of cell lysate was transferred to another 96-well plate, 100 μl/well of luciferase activity assay substrate was added into plate and read by a luminometer (Amersham) immediately.

[2] = system: HSV-1; assay: In vitro antiviral assay for HSV-1; assay type: cell-based, Herpes Simplex Virus 1; conditions: for EC50: Human alphaherpesvirus 1, read-out: Antiviral Activities (EC50, μM) HSV-1
Method: as §1

[3] = system: HCV; assay: Anti-HCV activity in Huh-Luc/neo cell line, luciferase activity after 3-day treatment; assay type: cell-based, Hepatitis C virus; conditions: Hepatitis C virus, 72 h, Huh-Luc/neo cells, 3 days; for EC50: given as a bound only, read-out: Antiviral Activities (EC50, μM) HCV
Method: as §1

[4] = Cell cytotoxicity assay on MT-2 cells; assay type: cell-based; conditions: human, read-out: Cytotoxity (ID50, μM) MT-2
Method: (§2) Cytotoxicities of test compounds on MT-2 (Mellors et al., 1992 Mol. Pharmacol. 41:446-451) and CEM (Grove et al., 1995, Cancer Res. 55:3008-3011) cells were determined according to the previously reported procedures. Hepg2 cells were seeded at a density of 10^4 cells/ml/well in 24-well plates and cultured in MEME supplemented with 10% FBS at 37° C. and 5% CO2. Each test compound at different concentrations was added on the second day of the culture and the cells were incubated for another 3 days. At the end of the incubation period, the medium was removed and 0.5 ml of 0.5% methylene blue in 50% ethanol (v/v) was added to each well and set at room temperature for 30-60 minutes. The methylene blue was removed; the plates were washed with water and allowed to air dry. Once dry, 1% sarcosyl was added to dissolve the stained cell layer. The absorbance at 595 nm was measured with a microplate reader (Molecular Devices Corp. Sunnyvale, Calif.). The cytotoxicity to CEM cell was calculated as described previously (Grove et al., 1995, Cancer Res. 55 (14): 3008-3011).

[5] = system: HBV; assay: In vitro antiviral assay for HBV (Table 1); assay type: cell-based, Hepatitis B virus; conditions: Hepatitis B virus, read-out: Antiviral Activities (EC50, μM) HBV
Method: as §1

[6] = Cell cytotoxicity assay on CEM cells; assay type: cell-based; conditions: human, read-out: Cytotoxity (ID50, μM) CEM
Method: as §2

[7] = system: HIV; assay: In vitro antiviral assay for HIV; assay type: cell-based, human immunodeficiency virus; conditions: Human immunodeficiency virus 1, read-out: Antiviral Activities (EC50, μM) HIV, in vitro; (T) after a value means toxic
Method: as §1

[8] = system: CMV; assay: In vitro antiviral assay for CMV; assay type: cell-based, cytomegalovirus; conditions: Human betaherpesvirus 5, read-out: Antiviral Activities (EC50, μM) CMV
Method: as §1

[9] = system: EBV; assay: In vitro antiviral assay for EBV; assay type: cell-based, Epstein-Barr Virus; conditions: human gammaherpesvirus 4, read-out: Antiviral Activities (EC50, μM) EBV
Method: as §1

[10] = read-out: HCV percent of inhibition

SMILES	EC50 [1] [µM]	EC50 [2] [µM]	EC50 [3] [µM]	melting point	IC50 [4] [µM]	EC50 [5] [µM]	IC50 [6] [µM]	EC50 [7] [µM]	EC50 [8] [µM]	EC50 [9] [µM]	inhibition at 10 µM [3, 10] [%]	times more potent than the reference drug acylclovir against HSV-2 ([1]; ratio of EC50 values) [times]	times more potent than the reference drug acylclovir against HSV-1 ([2]; ratio of EC50 values)	inhibition at 3 µM ([3]; at 3 μM, read-out: HCV percent of inhibition) [%]
O=C1OCc2c1cc1c(Cl)cc3c(c1c2-c1ccc2c(c1)OCO2)OCO3 [Compound 37, 10-Benzo[1,3]dioxol-5-yl-5-chloro-9H-furo[3′,4′:6,7]naphtho[1,2-d][1,3]dioxol-7-one]	> 25	23	> 10	267 °C (dec.)	50	> 10	27	> 50	8.8	> 20	–	–	–	–
O=C1c2cc3ccc4c(c3c(-c3ccc5c(c3)OCO5)c2C(=O)N1O)OCO4 [Compound 24, 10-Benzo[1,3]dioxol-5-yl-8-hydroxy-1,3-dioxa-8-aza-dicyclopenta[a,g]naphthalene-7,9-dione]	> 30	> 30	> 10	255 °C (dec.)	16	> 5	17	> 16	4.1	> 5	–	–	–	–
O=C([O-])c1cc2ccc3c(c2c(-c2ccc4c(c2)OCO4)c1CO)OCO3.[Na+] [Compound 3, 9-Benzo[1,3]dioxol-5-yl-8-hydroxymethyl-naphtho[1,2-d][1,3]dioxole-7-carboxylic acid monosodium salt]	25	9	–	128 to 130 °C	10	3.4	30	> 10	2.5	> 20	25	–	–	–
O=C([O-])c1cc2c(Cl)cc3c(c2c(-c2ccc4c(c2)OCO4)c1CO)OCO3.[Na+] [Compound 44, 9-Benzo[1,3]dioxol-5-yl-5-chloro-8-hydroxymethyl-naphtho[1,2-d][1,3]dioxole-7-carboxylic acid monosodium salt]	> 50	> 50	> 10	220 °C (dec.)	60	> 10	> 100	> 60	> 20	> 20	–	–	–	–
NC(=O)c1cc2ccc3c(c2c(-c2ccc4c(c2)OCO4)c1C(=O)O)OCO3 [Compound 12, 9-Benzo[1,3]dioxol-5-yl-7-carbamoyl-naphtho[1,2-d][1,3]dioxole-8-carboxylic acid]	< 0.1	0.15	–	–	5	0.8	8.4	> 5	0.45	9	–	~210	about 140 times	58
O=C([O-])c1cc2c(I)cc3c(c2c(-c2ccc4c(c2)OCO4)c1CO)OCO3.[Na+] [Compound 46, 9-Benzo[1,3]dioxol-5-yl-8-hydroxymethyl-5-iodo-naphtho[1,2-d][1,3]dioxole-7-carboxylic acid monosodium salt]	> 50	> 50	–	212 °C (dec.)	80	> 18	> 100	> 80	> 20	> 20	36	–	–	–
O=C1OC(=O)c2c1cc1ccc3c(c1c2-c1ccc2c(c1)OCO2)OCO3 [Compound 1, 10-Benzo[1,3]dioxol-5-yl-furo[3′,4′:6,7]naphtho[1,2-d][1,3]dioxole-7,9-dione]	> 50	> 50	> 10	–	> 100	> 10	> 50	> 100	17.6	> 20	–	–	–	–
O=C(O)c1cc2ccc3c(c2c(-c2ccc4c(c2)OCO4)c1COCc1ccccc1)OCO3 [Compound 5, 9-Benzo[1,3]dioxol-5-yl-8-benzyloxymethyl-naphtho[1,2-d][1,3]dioxole-7-carboxylic acid]	> 25	> 25	> 10	219 to 221 °C	48	> 10	> 50	> 48	–	> 20	–	–	–	–
O=c1[nH][nH]c(=O)c2c(-c3ccc4c(c3)OCO4)c3c4c(cc(I)c3cc12)OCO4 [Compound 43, 11-Benzo[1,3]dioxol-5-yl-5-iodo-8,9-dihydro-1,3-dioxa-8,9-diaza-cyclopenta[a]anthracene-7,10-dione]	> 40	> 40	–	300 °C (dec.)	35	> 10	40	2	–	> 20	52	–	–	–
O=C(NCCCOCc1ccccc1)c1cc2ccc3c(c2c(-c2ccc4c(c2)OCO4)c1COCc1ccccc1)OCO3 [Compound 8, 9-Benzo[1,3]dioxol-5-yl-8-benzyloxymethyl-naphtho[1,2-d][1,3]dioxole-7-carboxylic acid (3-benzyloxy-propyl)-amide]	> 25	> 25	> 10	–	> 100	> 10	10	> 100	3.7	> 15	–	–	–	–
CCOC(=O)c1c(C(=O)OCC)c(-c2ccc3c(c2)OCO3)c2c3c(ccc2c1O)OCO3 [Compound 33, 9-Benzo[1,3]dioxol-5-yl-6-hydroxy-naphtho[1,2-d][1,3]dioxole-7,8-dicarboxylic acid diethyl ester]	> 50	> 50	–	192 to 194 °C	15	> 10	39	> 15	–	> 10	62	–	–	–
CN1Cc2c(cc3ccc4c(c3c2-c2ccc3c(c2)OCO3)OCO4)C1=O [Compound 19, 10-Benzo[1,3]dioxol-5-yl-8-methyl-8,9-dihydro-1,3-dioxa-8-aza-dicyclopenta[a,g]naphthalen-7-one]	1	0.67	> 3	234 to 236 °C	8	1.6	6	> 8	–	> 20	–	–	–	–
O=C(O)c1cc2ccc3c(c2c(-c2ccc4c(c2)OCO4)c1C(=O)O)OCO3 [Compound 32, 9-Benzo[1,3]dioxol-5-yl-naphtho[1,2-d][1,3]dioxole-7,8-dicarboxylic acid]	> 50	> 50	> 10	253 °C (dec.)	> 100	> 20	> 100	> 100	–	> 20	–	–	–	–
O=C1OCc2c1c(-c1ccc3c(c1)OCO3)c1c3c(ccc1c2O)OCO3 [Compound 34, 10-Benzo[1,3]dioxol-5-yl-6-hydroxy-7H-furo[3′,4′:6,7]naphtho[1,2-d][1,3]dioxol-9-one]	28	23	> 10	257 °C (dec.)	13	> 10	31	> 13	–	> 10	–	–	–	–

From US7754718B2 (priority 2004, dated 2010)
